Experimental data from patent publication US20120029187A1, “HALOALKYLSULFONANILIDE DERIVATIVE” (Nissan Chemical Industries, Ltd., priority 2009, published 2012).

How the values were obtained:
Type in all cases: in vivo
bulrush [1] = assay: Test Example 2: herbicidal effects during the vegetation period under submerged conditions; conditions: treatment during the vegetation period under submerged conditions; dose 2.52 g/a
How it was run: (§1)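 Barnyardgrass, bulrush and ducksalad were co-sown in alluvial soil flooded to 4 cm and grown in a greenhouse at 25 to 30° C. At the 1- or 2-leaf stage, water-diluted emulsifiable concentrates went onto the water surface at set doses (g/a). Herbicidal effect was scored three weeks later on a graded scale.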

ducksalad [2] = assay: as above; conditions: treatment during the vegetation period under submerged conditions; dose 2.52 g/a
How it was run: as §1

barnyardgrass [3] = assay: as above; conditions: treatment during the vegetation period under submerged conditions; dose 2.52 g/a
How it was run: as §1

giant foxtail [4] = assay: Test Example 4: herbicidal effect in foliage treatment; conditions: dose 3.2 g/a
How it was run: (§2)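 Weeds and crops sown in sterilized diluvial soil under ~1.5 cm cover and grown in greenhouse at 25 to 30° C. At 14 days, water-diluted emulsifiable concentrate sprayed onto foliage at set doses (g/a); herbicidal effect scored on a rating scale three weeks after application.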

velvetleaf [5] = assay: as above; conditions: dose 3.2 g/a
How it was run: as §2

redroot pigweed [6] = assay: as above; conditions: dose 3.2 g/a
How it was run: as §2

common chickweed [7] = assay: as above; conditions: dose 3.2 g/a
How it was run: as §2

large crabgrass [8] = assay: as above; conditions: dose 3.2 g/a
How it was run: as §2

beadstraw [9] = assay: as above; conditions: dose 3.2 g/a
How it was run: as §2

barnyardgrass [10] = assay: as above; conditions: dose 3.2 g/a
How it was run: as §2

common ragweed [11] = assay: as above; conditions: dose 3.2 g/a
How it was run: as §2

Italian ryegrass [12] = assay: as above; conditions: dose 3.2 g/a
How it was run: as §2

common lambsquater [13] = assay: as above; conditions: dose 3.2 g/a
How it was run: as §2

posumbu knotweed [14] = assay: as above; conditions: dose 3.2 g/a
How it was run: as §2

water foxtail [15] = assay: as above; conditions: dose 3.2 g/a
How it was run: as §2

bulrush [16] = assay: Test Example 1: herbicidal effects in preemergence treatment under submerged conditions; conditions: dose 2.52 g/a
How it was run: (§3)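 Scoring 0 (<5% mortality) to 5 (≥90%) was done three weeks after preemergence application to the water surface of submerged (4 cm) alluvial soil, doses given as g per are. Weeds were seeded and 2.5-leaf rice transplanted on the treatment day; greenhouse at 25–30 °C.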

ducksalad [17] = assay: as above; conditions: dose 2.52 g/a
How it was run: as §3

barnyardgrass [18] = assay: as above; conditions: dose 2.52 g/a
How it was run: as §3

transplanted rice = assay: Test Example 1: preemergence treatment under submerged conditions, effect on crop; conditions: dose 2.52 g/a
How it was run: as §3

giant foxtail [19] = assay: Test Example 3: herbicidal effects in soil treatment; conditions: dose 3.2 g/a
How it was run: (§4)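 Seeds were sown in sterilized diluvial soil and covered with about 1.5 cm of soil. Compounds, formulated as emulsifiable concentrates and diluted with water, were sprayed evenly over the soil surface at set doses in g/a. Herbicidal effect was scored on a rating scale three weeks later.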

velvetleaf [20] = assay: as above; conditions: dose 3.2 g/a
How it was run: as §4

redroot pigweed [21] = assay: as above; conditions: dose 3.2 g/a
How it was run: as §4

common chickweed [22] = assay: as above; conditions: dose 3.2 g/a
How it was run: as §4

large crabgrass [23] = assay: as above; conditions: dose 3.2 g/a
How it was run: as §4

beadstraw [24] = assay: as above; conditions: dose 3.2 g/a
How it was run: as §4

barnyardgrass [25] = assay: as above; conditions: dose 3.2 g/a
How it was run: as §4

common ragweed [26] = assay: as above; conditions: dose 3.2 g/a
How it was run: as §4

Italian ryegrass [27] = assay: as above; conditions: dose 3.2 g/a
How it was run: as §4

common lambsquater [28] = assay: as above; conditions: dose 3.2 g/a
How it was run: as §4

posumbu knotweed [29] = assay: as above; conditions: dose 3.2 g/a
How it was run: as §4

water foxtail [30] = assay: as above; conditions: dose 3.2 g/a
How it was run: as §4

[31] = three weeks after the application

Question: What does the source list for `CCC(=O)N(c1ccccc1CN1COC(C)(CC(F)(F)F)CC1=O)S(=O)(=O)C(F)(F)F` (centres unmarked) [II-52]?
Answer: B: bulrush, herbicidal effect (evaluation scale 0-5) (bulrush [1]): 5 (mortality of 90% or above (nearly complete death)); C: ducksalad, herbicidal effect (evaluation scale 0-5) (ducksalad [2]): 5 (mortality of 90% or above (nearly complete death)); A: barnyardgrass, herbicidal effect (evaluation scale 0-5) (barnyardgrass [3]): 5 (mortality of 90% or above (nearly complete death)); E: giant foxtail, herbicidal effect (giant foxtail [4]; three weeks after application): 5 (mortality of 90% or above (nearly complete death)); I: velvetleaf, herbicidal effect (velvetleaf [5]; three weeks after application): 3 (mortality of at least 40% and less than 70%); K: redroot pigweed, herbicidal effect (redroot pigweed [6]; three weeks after application): 0 (mortality of less than 5% (almost ineffective)); N: common chickweed, herbicidal effect (common chickweed [7]; three weeks after application): 4 (mortality of at least 70% and less than 90%); D: large crabgrass, herbicidal effect (large crabgrass [8]; three weeks after application): 4 (mortality of at least 70% and less than 90%); O: beadstraw, herbicidal effect (beadstraw [9]; three weeks after application): 5 (mortality of 90% or above (nearly complete death)); A: barnyardgrass, herbicidal effect (barnyardgrass [10]; three weeks after application): 5 (mortality of 90% or above (nearly complete death)); J: common ragweed, herbicidal effect (common ragweed [11]; three weeks after application): 3 (mortality of at least 40% and less than 70%); H: Italian ryegrass, herbicidal effect (Italian ryegrass [12]; three weeks after application): 4 (mortality of at least 70% and less than 90%); L: common lambsquater, herbicidal effect (common lambsquater [13]; three weeks after application): 4 (mortality of at least 70% and less than 90%); M: posumbu knotweed, herbicidal effect (posumbu knotweed [14]; three weeks after application): 1 (mortality of at least 5% and less than 20%); G: water foxtail, herbicidal effect (water foxtail [15]; three weeks after application): 5 (mortality of 90% or above (nearly complete death)); B: bulrush, herbicidal effect (evaluation scale 0-5) (bulrush [16]): 5 (mortality of 90% or above (nearly complete death)); C: ducksalad, herbicidal effect (evaluation scale 0-5) (ducksalad [17]): 5 (mortality of 90% or above (nearly complete death)); A: barnyardgrass, herbicidal effect (evaluation scale 0-5) (barnyardgrass [18]): 5 (mortality of 90% or above (nearly complete death)); a: transplanted rice, effect on crop (evaluation scale 0-5) (transplanted rice): 0 (mortality of less than 5% (almost ineffective)); E: giant foxtail, herbicidal effect (evaluation scale 0-5) (giant foxtail [19]): 5 (mortality of 90% or above (nearly complete death)); I: velvetleaf, herbicidal effect (evaluation scale 0-5) (velvetleaf [20]): 5 (mortality of 90% or above (nearly complete death)); K: redroot pigweed, herbicidal effect (evaluation scale 0-5) (redroot pigweed [21]): 1 (mortality of at least 5% and less than 20%); N: common chickweed, herbicidal effect (evaluation scale 0-5) (common chickweed [22]): 5 (mortality of 90% or above (nearly complete death)); D: large crabgrass, herbicidal effect (evaluation scale 0-5) (large crabgrass [23]): 5 (mortality of 90% or above (nearly complete death)); O: beadstraw, herbicidal effect (evaluation scale 0-5) (beadstraw [24]): 0 (mortality of less than 5% (almost ineffective)); A: barnyardgrass, herbicidal effect (evaluation scale 0-5) (barnyardgrass [25]): 5 (mortality of 90% or above (nearly complete death)); J: common ragweed, herbicidal effect (evaluation scale 0-5) (common ragweed [26]): 5 (mortality of 90% or above (nearly complete death)); H: Italian ryegrass, herbicidal effect (evaluation scale 0-5) (Italian ryegrass [27]): 5 (mortality of 90% or above (nearly complete death)); L: common lambsquater, herbicidal effect (evaluation scale 0-5) (common lambsquater [28]): 4 (mortality of at least 70% and less than 90%); M: posumbu knotweed, herbicidal effect (evaluation scale 0-5) (posumbu knotweed [29]): 5 (mortality of 90% or above (nearly complete death)); G: water foxtail, herbicidal effect (evaluation scale 0-5) (water foxtail [30]): 5 (mortality of 90% or above (nearly complete death))

Question: Which results are given for `CC1CON(Cc2ccccc2NS(=O)(=O)C(F)(F)F)C(=O)O1` (centres unmarked) [III-3]?
Answer: B: bulrush, herbicidal effect (evaluation scale 0-5) (bulrush [1]): 5 (mortality of 90% or above (nearly complete death)); C: ducksalad, herbicidal effect (evaluation scale 0-5) (ducksalad [2]): 5 (mortality of 90% or above (nearly complete death)); A: barnyardgrass, herbicidal effect (evaluation scale 0-5) (barnyardgrass [3]): 5 (mortality of 90% or above (nearly complete death)); E: giant foxtail, herbicidal effect (giant foxtail [4]; [31]): 4 (mortality of at least 70% and less than 90%); I: velvetleaf, herbicidal effect (velvetleaf [5]; [31]): 2 (mortality of at least 20% and less than 40%); K: redroot pigweed, herbicidal effect (redroot pigweed [6]; [31]): 0 (mortality of less than 5% (almost ineffective)); N: common chickweed, herbicidal effect (common chickweed [7]; [31]): 4 (mortality of at least 70% and less than 90%); D: large crabgrass, herbicidal effect (large crabgrass [8]; [31]): 4 (mortality of at least 70% and less than 90%); O: beadstraw, herbicidal effect (beadstraw [9]; [31]): 4 (mortality of at least 70% and less than 90%); A: barnyardgrass, herbicidal effect (barnyardgrass [10]; [31]): 5 (mortality of 90% or above (nearly complete death)); J: common ragweed, herbicidal effect (common ragweed [11]; [31]): 4 (mortality of at least 70% and less than 90%); H: Italian ryegrass, herbicidal effect (Italian ryegrass [12]; [31]): 0 (mortality of less than 5% (almost ineffective)); L: common lambsquater, herbicidal effect (common lambsquater [13]; [31]): 0 (mortality of less than 5% (almost ineffective)); M: posumbu knotweed, herbicidal effect (posumbu knotweed [14]; [31]): 2 (mortality of at least 20% and less than 40%); G: water foxtail, herbicidal effect (water foxtail [15]; [31]): 5 (mortality of 90% or above (nearly complete death)); B: bulrush, herbicidal effect (evaluation scale 0-5) (bulrush [16]): 5 (mortality of 90% or above (nearly complete death)); C: ducksalad, herbicidal effect (evaluation scale 0-5) (ducksalad [17]): 5 (mortality of 90% or above (nearly complete death)); A: barnyardgrass, herbicidal effect (evaluation scale 0-5) (barnyardgrass [18]): 4 (mortality of at least 70% and less than 90%); a: transplanted rice, effect on crop (evaluation scale 0-5) (transplanted rice): 0 (mortality of less than 5% (almost ineffective)); herbicidal effect, E: giant foxtail (giant foxtail [19]): 5 (mortality of 90% or above (nearly complete death)); herbicidal effect, I: velvetleaf (velvetleaf [20]): 1 (mortality of at least 5% and less than 20%); herbicidal effect, K: redroot pigweed (redroot pigweed [21]): 0 (mortality of less than 5% (almost ineffective)); herbicidal effect, N: common chickweed (common chickweed [22]): 4 (mortality of at least 70% and less than 90%); herbicidal effect, D: large crabgrass (large crabgrass [23]): 5 (mortality of 90% or above (nearly complete death)); herbicidal effect, O: beadstraw (beadstraw [24]): 0 (mortality of less than 5% (almost ineffective)); herbicidal effect, A: barnyardgrass (barnyardgrass [25]): 5 (mortality of 90% or above (nearly complete death)); herbicidal effect, J: common ragweed (common ragweed [26]): 5 (mortality of 90% or above (nearly complete death)); herbicidal effect, H: Italian ryegrass (Italian ryegrass [27]): 0 (mortality of less than 5% (almost ineffective)); herbicidal effect, L: common lambsquater (common lambsquater [28]): 0 (mortality of less than 5% (almost ineffective)); herbicidal effect, M: posumbu knotweed (posumbu knotweed [29]): 5 (mortality of 90% or above (nearly complete death)); herbicidal effect, G: water foxtail (water foxtail [30]): 5 (mortality of 90% or above (nearly complete death))
